US8329926B2, “Antiviral compounds” (Gilead Sciences, Inc., priority 2004, dated 2012)
Counter-ions that a name gives are not always drawn. Like-named read-outs stand apart in the source and are kept apart here.

How the values were obtained:
mtDNA = mtDNA IC50; assay type: cell-based
HIV-1 = assay: Anti-HIV-1 activity (EC50); assay type: cell-based
6TAM = settings: FIG. 1
M184V = settings: FIG. 1
K65R = settings: FIG. 1

Nc1ncnc2c1ncn2[C@@H]1O[C@H](OCP(=O)(O)O)C=C1F [2′F-d4AP, (2′R, 5′R)-9-(3-fluoro-2,5-dihydro-5-phosphonomethoxy-2-furanyl)adenine di sodium salt] gave an IC50 (mtDNA; FIG. 2, read-out: IC50 [uM] mtDNA) of 100 to 1000 µM, an EC50 (HIV-1; read-out: EC50 [uM] HIV-1) of 1 to 100 µM and a CC50 (MT-2) of under 1000 µM.
With Nc1nc(N)c2ncn([C@@H]3O[C@H](OCP(=O)(O)O)C=C3F)c2n1 [2′F-d4DAPP] the EC50 (HIV-1; read-out: EC50 [uM] HIV-1) was 100 to 1000 µM.
Molecule C[C@H](Cn1cnc2c(N)ncnc21)OCP(=O)(O)O [Tenofovir] has an IC50 (mtDNA; FIG. 1, read-out: mtDNA 1050) of 100 to 1000 µM, an EC50 (HIV-1; FIG. 1, read-out: EC50 [uM] HIV-1) of 1 to 100 µM and a CC50 (MT-2) of under 1000 µM. For the same molecule, the “Resistance - fold EC50 6TAM” value (6TAM) was “+++ (+++=1-100)”, the “Resistance - fold EC50 M184V” value (M184V) was “++++ (++++=0.01-1)” and the “Resistance - fold EC50 K65R” value (K65R) was “+++ (+++=1-100)”.
Molecule CCCOC(=O)[C@H](C)NP(=O)(CO[C@@H]1C=C(F)[C@H](n2cnc3c(N)ncnc32)O1)N[C@@H](C)C(=O)OCCC [drawing 144 (Ala) n-Propyl] has an EC50 (HIV-1; Human immunodeficiency virus 1, FIG. 5, prodrugs by R1 (aa) and R2 (ester), read-out: EC50) of 0.1 to 1 µM.
